Assay results as given in patent publication US20100311714A1, “1H-IMIDAZO[4,5-c]QUINOLINONE COMPOUNDS” (priority 2009, published 2010).
Where two headings read alike, the source gives them in different places.

Legend:
PI3K beta = biological target: T1, PI3K beta (Homo sapiens, UniProt P42338); assay: PI3K beta kinase assay (Kinase-Glo luminescence); format: biochemical
T1 construct: for the full-length p110-b subunit are generated and fused by overlapping PCR; His tag (C); made in house; host or cells: baculovirus BV949; Tn5 (Trichoplusia ni) or TiniPro insect cells
T1 sequence (P42338 with tags, fused parts or gaps limits assumed): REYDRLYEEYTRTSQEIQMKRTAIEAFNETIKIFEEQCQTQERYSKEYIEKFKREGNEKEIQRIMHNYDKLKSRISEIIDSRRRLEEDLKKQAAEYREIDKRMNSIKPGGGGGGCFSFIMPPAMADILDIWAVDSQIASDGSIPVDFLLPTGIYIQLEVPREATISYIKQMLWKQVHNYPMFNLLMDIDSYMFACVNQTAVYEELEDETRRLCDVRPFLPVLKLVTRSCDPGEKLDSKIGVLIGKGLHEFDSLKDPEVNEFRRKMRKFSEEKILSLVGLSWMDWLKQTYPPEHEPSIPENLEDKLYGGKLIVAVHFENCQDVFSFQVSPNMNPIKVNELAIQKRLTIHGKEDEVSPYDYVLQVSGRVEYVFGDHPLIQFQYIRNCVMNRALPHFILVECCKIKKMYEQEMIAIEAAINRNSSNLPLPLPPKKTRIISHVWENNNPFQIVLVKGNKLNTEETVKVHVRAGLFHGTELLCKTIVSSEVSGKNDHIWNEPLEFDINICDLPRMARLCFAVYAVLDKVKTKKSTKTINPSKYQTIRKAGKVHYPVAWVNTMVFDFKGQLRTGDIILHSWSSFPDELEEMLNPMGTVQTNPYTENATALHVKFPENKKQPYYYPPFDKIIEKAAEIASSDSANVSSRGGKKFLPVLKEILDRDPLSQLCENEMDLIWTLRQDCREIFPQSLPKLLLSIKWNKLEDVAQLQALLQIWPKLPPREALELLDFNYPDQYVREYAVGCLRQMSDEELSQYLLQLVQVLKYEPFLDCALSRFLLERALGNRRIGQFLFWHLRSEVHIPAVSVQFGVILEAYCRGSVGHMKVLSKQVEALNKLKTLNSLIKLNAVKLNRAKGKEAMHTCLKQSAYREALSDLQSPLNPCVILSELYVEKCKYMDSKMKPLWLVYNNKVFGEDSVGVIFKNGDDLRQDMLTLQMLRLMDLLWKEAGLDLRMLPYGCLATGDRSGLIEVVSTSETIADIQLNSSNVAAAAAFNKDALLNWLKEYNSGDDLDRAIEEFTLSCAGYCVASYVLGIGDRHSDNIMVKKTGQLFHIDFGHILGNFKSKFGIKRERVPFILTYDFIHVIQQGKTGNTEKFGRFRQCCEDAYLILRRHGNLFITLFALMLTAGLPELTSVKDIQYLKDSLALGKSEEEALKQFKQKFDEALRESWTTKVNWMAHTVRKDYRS
Method: In a more preferred assay, the kinase reaction is performed in a final volume of 10 μL per well of a low volume non binding CORNING, 384 well black plate (Cat. No. #3676). The final concentrations of ATP and phosphatidyl inositol (PI) in the assay are 1 μM and 10 μg/mL respectively. The reaction is started by the addition of ATP.
The components of the assay are added per well as follows:
50 nL test compounds in 90% DMSO per well, in columns 1-20, 8 concentrations (⅓ and 1/3.33 serial dilution step) in single. • Low control: […] of 90% DMSO in half the wells of columns 23-24 (0.45% in final). • High control: 50 nL of reference compound (e.g. compound of Example 7 in WO 2006/122806) in the other half of columns 23-24 (2.5 μM in final). • Standard: 50 nL of reference compound as just mentioned diluted as the test compounds in columns 21-22 • 20 mL ‘buffer’ are prepared per assay: • 200 μL of 1M TRIS HCl pH7.5 (10 mM in final) • 60 μL of 1M MgCl2 (3 mM in final) • 500 μL of 2M NaCl (50 mM in final) • 100 μL of 10% CHAPS (0.05% in final) • 200 μL of 100 mM DTT (1 mM in final) • 18.94 mL of nanopure water • 10 mL ‘PI’ are prepared per assay: • 200 μL of 1 mg/ml L-alpha-Phosphatidylinositol (Liver Bovine, Avanti Polar Lipids Cat. No. 840042C MW=909.12) prepared in 3% OctylGlucoside (10 μg/ml in final) • 9.8 mL of ‘buffer’ • 10 mL ‘ATP’ are prepared per assay: • 6.7 μL of 3 mM stock of ATP giving a final concentration of 1 μM per well • 10 mL of ‘buffer’ • 2.5 mL of each PI3K construct are prepared per assay in ‘PI’ with the following final concentration: • 10 nM PI3K alfa EMV B1075 • 25 nM beta EMV BV949 • 10 nM delta EMV BV1060 • 150 nM gamma EMV BV950 • 5 μL of ‘PI/PI3K’ are added per well. • 5 μl ‘ATP’ are added per well to start the reaction. • The plates are then incubated at room temperature for 60 minutes (alfa, beta, delta) or 120 minutes (gamma). • The reaction is terminated by the addition of 10 μL Kinase-Glo (Promega Cat. No. #6714). • The assay plates are read after 10 minutes in Synergy 2 reader (BioTek, Vermont USA) with an integration time of 100 milliseconds and sensitivity set to 191. • Output: The High control is around 60′000 counts and the Low control is 30′000 or lower • This luminescence assay gives a useful Z′ ratio between 0.4 and 0.7
PI3Kβ BV-949 p85(iSH2)-Gly linker-r 110b(full-length)-C-term His Tag
PI3K beta is purified in two chromatographic steps: immobilized metal affinity chromatography (IMAC) on a Ni Sepharose resin (GE Healthcare) and gel filtration (GFC) utilizing a Superdex 200 26/60 column (GE Healthcare). All buffers are chilled to 4° C. and lysis is performed chilled on ice. Column fractionation is performed rapidly at room temperature.
IC50 is determined by a four parameter curve fitting routine that comes along with “excel fit”. A 4 Parameter logistic equation is used to calculate IC50 values (IDBS XLfit) of the percentage inhibition of each compound at 8 concentrations (usually 10, 3.0, 1.0, 0.3, 0.1, 0.030, 0.010 and 0.003 μM). Alternatively, IC50 values are calculated using idbsXLfit model 204, which is a 4 parameter logistic model.

mTOR = biological target: T2, mTOR (Homo sapiens, UniProt P42345); assay: Biochemical assay for m-TOR by TR-FRET
T2 construct: purchased Invitrogen Corporation (Carlsbad/Calif., USA) PV4753
T2 sequence (P42345 1360-2549 limits assumed): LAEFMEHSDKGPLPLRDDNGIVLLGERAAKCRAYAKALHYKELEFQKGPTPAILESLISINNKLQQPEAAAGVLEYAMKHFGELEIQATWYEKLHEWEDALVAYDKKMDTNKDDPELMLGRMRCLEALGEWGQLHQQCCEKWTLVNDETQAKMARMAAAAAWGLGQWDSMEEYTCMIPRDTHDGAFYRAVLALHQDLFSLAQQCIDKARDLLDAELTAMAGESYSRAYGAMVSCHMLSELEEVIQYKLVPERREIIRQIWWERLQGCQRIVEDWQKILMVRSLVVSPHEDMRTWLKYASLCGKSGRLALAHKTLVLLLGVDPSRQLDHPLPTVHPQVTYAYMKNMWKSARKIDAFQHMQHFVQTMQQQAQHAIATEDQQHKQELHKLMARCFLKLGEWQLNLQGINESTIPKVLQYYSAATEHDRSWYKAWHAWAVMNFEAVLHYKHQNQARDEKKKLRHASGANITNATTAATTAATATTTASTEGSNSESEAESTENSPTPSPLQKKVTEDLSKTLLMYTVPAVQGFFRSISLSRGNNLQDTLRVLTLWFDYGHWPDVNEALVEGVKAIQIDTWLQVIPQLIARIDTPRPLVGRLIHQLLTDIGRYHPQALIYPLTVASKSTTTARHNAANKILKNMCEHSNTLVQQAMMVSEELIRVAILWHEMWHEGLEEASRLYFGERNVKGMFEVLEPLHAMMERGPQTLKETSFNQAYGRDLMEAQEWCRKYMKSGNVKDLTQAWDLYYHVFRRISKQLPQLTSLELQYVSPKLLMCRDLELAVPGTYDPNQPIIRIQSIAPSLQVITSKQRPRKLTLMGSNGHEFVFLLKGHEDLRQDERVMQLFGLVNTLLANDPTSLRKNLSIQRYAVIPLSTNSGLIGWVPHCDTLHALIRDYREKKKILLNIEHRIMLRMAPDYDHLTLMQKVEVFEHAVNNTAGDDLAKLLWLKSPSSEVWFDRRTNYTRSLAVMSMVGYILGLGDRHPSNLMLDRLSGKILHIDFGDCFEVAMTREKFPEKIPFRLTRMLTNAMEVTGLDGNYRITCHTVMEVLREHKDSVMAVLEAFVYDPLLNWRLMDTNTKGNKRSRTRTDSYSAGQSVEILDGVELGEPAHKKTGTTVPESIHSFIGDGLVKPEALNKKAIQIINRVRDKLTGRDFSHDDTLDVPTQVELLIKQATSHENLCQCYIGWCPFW
Method: Biochemical Assay for m-TOR by TR-FRET.
Assay components are purchased from Invitrogen Corporation (Carlsbad/Calif., USA): GFP-4EBP1 (Cat. No. PV4759), Tb3+-α-p4EBP1 [pThr46] Antibody (Cat. No. PV4757), proprietary TR-FRET dilution buffer (Cat. No. PV3574), mTOR protein (Cat. No. PV4753).
50 nL of compound dilutions (final concentration of 10, 3.0, 1.0, 0.3, 0.1, 0.03, 0.01 and 0.003 μM) are dispensed onto black 384-well low volume non-binding polystyrene (Cat. No. NBS#3676, Corning, Lowell/Mass., USA). Then 5 μL of ATP (8 μM final concentration) and GFP-4EBP1 (400 nM final concentration) with 5 μL mTOR proteins (0.5 nM final concentration) are incubated at rt. The standard reaction buffer for the TR-FRET mTOR assay contained 50 mM HEPES pH 7.5, 10 mM MnCl2, 50 mM NaCl, 1 mM EGTA, 1 mM DTT. Reactions were stopped with 10 μL of a mixture of EDTA containing the Tb3+-α-p4EBP1[pT46] detection Ab (0.5 nM) in TR-FRET dilution buffer (proprietary to IVG). Plates are read 15 mins later in a Synergy2 reader using an integration time of 0.2 seconds and a delay of 0.1 seconds. Control for the 100% inhibition of the kinase reaction is performed by replacing the mTOR kinase by the standard reaction buffer. The control for the 0% inhibition is given by the solvent vehicle of the compounds (90% DMSO in H2O). A standard compound is used as a reference compound and included in all assay plates in the form of 16 dilution points in duplicate.

[1] = Parallel Artificial Membrane Permeability Assay (PAMPA) at pH 6.8; format: physicochemical
Source text: The physicochemical properties of relevance for the absorption of the compound, such as the solubility and the membrane permeability, especially at a pH close to neutral pH can be measured using the procedure as described by L. ZHOU et al. in JOURNAL OF PHARMACEUTICAL SCIENCES, VOL. 96, NO. 11, p. 3052-3071 (2007) for the solubility at pH 6.8 and the procedure as described by F. Wohnsland and B. Faller in Journal of Medicinal Chemistry Vol 44, p. 923-930 (2001) for the Parallel Artificial Membrane Permeability Assay (PAMPA) at pH 6.8.
The following permeability log Pe was measured for compound of formula (I) as exemplified below: […]

| Structure (SMILES) | IC50 (PI3K beta; read-out: PI3Kbeta/IC50) [nM] | IC50 (mTOR; read-out: mTOR/IC50) [nM] | also measured |
| --- | --- | --- | --- |
| Cc1ncccc1-n1c(=O)n(C)c2cnc3ccc(-c4ccc(N)nc4)cc3c21 [Example 2.7, 8-(6-Amino-pyridin-3-yl)-3-methyl-1-(2-methyl-pyridin-3-yl)-1,3-dihydro-imidazo[4,5-c]quinolin-2-one] | 133 | 18 |  |
| Cc1nc(N2CCC2)ccc1-n1c(=O)n(C)c2cnc3ccc(-c4cncc(N5CCC5)c4)cc3c21 [Example 23.1, 1-(6-Azetidin-1-yl-2-methyl-pyridin-3-yl)-8-(5-azetidin-1-yl-pyridin-3-yl)-3-methyl-1,3-dihydro-imidazo[4,5-c]quinolin-2-one] |  |  | IC50 (PI3K beta; read-out: EPK_PI3Kbeta/IC50): 1160 nM; IC50 (mTOR; read-out: EPK_mTOR/IC50): 9 nM |
| CCOc1ncc(-c2ccc3ncc4c(c3c2)n(-c2ncccc2C)c(=O)n4C)cn1 [Example 3.1, 8-(2-Ethoxy-pyrimidin-5-yl)-3-methyl-1-(3-methyl-pyridin-2-yl)-1,3-dihydro-imidazo[4,5-c]quinolin-2-one] |  |  | HT-perm/logPe pH6.8 [1]: −3.8 |
| CNC(=O)c1ccc(-c2ccc3ncc4c(c3c2)n(-c2ncccc2C)c(=O)n4C)cc1 [Example 3.5, N-Methyl-4-[3-methyl-1-(3-methyl-pyridin-2-yl)-2-oxo-2,3-dihydro-1H-imidazo[4,5-c]quinolin-8-yl]-benzamide] |  | 331 |  |
| Cc1cccnc1-n1c(=O)n(C)c2cnc3ccc(-c4ccc(N(C)C)nc4)cc3c21 [Example 3.11, 8-(6-Dimethylamino-pyridin-3-yl)-3-methyl-1-(3-methyl-pyridin-2-yl)-1,3-dihydro-imidazo[4,5-c]quinolin-2-one] |  |  | HT-perm/logPe pH6.8 [1]: −3.4 |
| COc1nc(N2CCNCC2)ccc1-n1c(=O)n(C)c2cnc3ccc(-c4cnc(N)c(C(F)(F)F)c4)cc3c21 [Example 9.2, 8-(6-Amino-5-trifluoromethyl-pyridin-3-yl)-1-(2-methoxy-6-piperazin-1-yl-pyridin-3-yl)-3-methyl-1,3-dihydro-imidazo[4,5-c]quinolin-2-one] | 36 |  |  |
| Cc1ccncc1-n1c(=O)n(C)c2cnc3ccc(-c4ccc(CO)nc4)cc3c21 [Example 4.1, 8-(6-Hydroxymethyl-pyridin-3-yl)-3-methyl-1-(4-methyl-pyridin-3-yl)-1,3-dihydro-imidazo[4,5-c]quinolin-2-one] |  |  | HT-perm/logPe pH6.8 [1]: −6.1 |
| CCOc1ccc(-c2ccc3ncc4c(c3c2)n(-c2cnccc2C)c(=O)n4C)cn1 [Example 4.2, 8-(6-Ethoxy-pyridin-3-yl)-3-methyl-1-(4-methyl-pyridin-3-yl)-1,3-dihydro-imidazo[4,5-c]quinolin-2-one] |  |  | HT-perm/logPe pH6.8 [1]: −3.5 |
| Cc1ncccc1-n1c(=O)n(C)c2cnc3ccc(-c4ccc(CO)nc4)cc3c21 [Example 2.6, 8-(6-Hydroxymethyl-pyridin-3-yl)-3-methyl-1-(2-methyl-pyridin-3-yl)-1,3-dihydro-imidazo[4,5-c]quinolin-2-one] | 706 | 104 |  |
| CNc1ccc(-c2ccc3ncc4c(c3c2)n(-c2ccc(N3CCC3)nc2C)c(=O)n4C)cn1 [Example 23.4, 1-(6-Azetidin-1-yl-2-methyl-pyridin-3-yl)-3-methyl-8-(6-methylamino-pyridin-3-yl)-1,3-dihydro-imidazo[4,5-c]quinolin-2-one] |  |  | IC50 (PI3K beta; read-out: EPK_PI3Kbeta/IC50): 441 nM; IC50 (mTOR; read-out: EPK_mTOR/IC50): 6 nM |
| Cc1ncccc1-n1c(=O)n(C)c2cnc3ccc(-c4ccc(C(N)=O)cc4)cc3c21 [Example 2.3, 4-[3-Methyl-1-(2-methyl-pyridin-3-yl)-2-oxo-2,3-dihydro-1H-imidazo[4,5-c]quinolin-8-yl]-benzamide] | 577 | 11 |  |
| Cc1ncccc1-n1c(=O)n(C)c2cnc3ccc(-c4ccc(OCCCN(C)C)nc4)cc3c21 [Example 2.10, 8-[6-(3-Dimethylamino-propoxy)-pyridin-3-yl]-3-methyl-1-(2-methyl-pyridin-3-yl)-1,3-dihydro-imidazo[4,5-c]quinolin-2-one] |  | 600 |  |
| CCOc1ccc(-c2ccc3ncc4c(c3c2)n(-c2ccc(N3CCNCC3)nc2OC)c(=O)n4C)cn1 [Example 9.1, 8-(6-Ethoxy-pyridin-3-yl)-1-(2-methoxy-6-piperazin-1-yl-pyridin-3-yl)-3-methyl-1,3-dihydro-imidazo[4,5-c]quinolin-2-one] | 267 |  |  |
| Cc1cccnc1-n1c(=O)n(C)c2cnc3ccc(-c4ccc(C(N)=O)cc4)cc3c21 [Example 3.3, 4-[3-Methyl-1-(3-methyl-pyridin-2-yl)-2-oxo-2,3-dihydro-1H-imidazo[4,5-c]quinolin-8-yl]-benzamide] |  | 345 |  |
| Cn1c(=O)n(-c2cccnc2)c2c3cc(-c4ccc(CO)nc4)ccc3ncc21 [Example 5.1, 8-(6-Hydroxymethyl-pyridin-3-yl)-3-methyl-1-pyridin-3-yl-1,3-dihydro-imidazo[4,5-c]quinolin-2-one] | 801 | 351 |  |
| COc1ncccc1-n1c(=O)n(C)c2cnc3ccc(-c4ccc(C(N)=O)cc4)cc3c21 [Example 1.6, 4-[1-(2-Methoxy-pyridin-3-yl)-3-methyl-2-oxo-2,3-dihydro-1H-imidazo[4,5-c]quinolin-8-yl]-benzamide] | 491 | 10 |  |
| COc1ncc(-c2ccc3ncc4c(c3c2)n(-c2ccc(N3CC(O)C3)nc2C)c(=O)n4C)c(OC)n1 [Example 29.6, 8-(2,4-Dimethoxy-pyrimidin-5-yl)-1-[6-(3-hydroxy-azetidin-1-yl)-2-methyl-pyridin-3-yl]-3-methyl-1,3-dihydro-imidazo[4,5-c]quinolin-2-one] |  |  | IC50 (PI3K beta; read-out: EPK_PI3Kbeta/IC50): 59 nM; IC50 (mTOR; read-out: EPK_mTOR/IC50): 11 nM |
